Article PMC7366380, “Discovery of a Potent and Selective Covalent Inhibitor and Activity-Based Probe for the Deubiquitylating Enzyme UCHL1, with Antifibrotic Activity” (Journal of the American Chemical Society, 2020)
Several values for one entry are separate records, joined by “and”; a condition that tells them apart may be missing. Equal entries are not always repeated.

Legend:
Assay in all cases: Quantitative chemical proteomic profiling of ABP 2 in HEK293 cells: other DUBs and proteins across the proteome
[1] = biological target: T1, DUBs and other proteins in HEK293 cells (Homo sapiens, UniProt P45974); conditions: USP5, listed as ABP 2
T1 sequence (P45974 1-858): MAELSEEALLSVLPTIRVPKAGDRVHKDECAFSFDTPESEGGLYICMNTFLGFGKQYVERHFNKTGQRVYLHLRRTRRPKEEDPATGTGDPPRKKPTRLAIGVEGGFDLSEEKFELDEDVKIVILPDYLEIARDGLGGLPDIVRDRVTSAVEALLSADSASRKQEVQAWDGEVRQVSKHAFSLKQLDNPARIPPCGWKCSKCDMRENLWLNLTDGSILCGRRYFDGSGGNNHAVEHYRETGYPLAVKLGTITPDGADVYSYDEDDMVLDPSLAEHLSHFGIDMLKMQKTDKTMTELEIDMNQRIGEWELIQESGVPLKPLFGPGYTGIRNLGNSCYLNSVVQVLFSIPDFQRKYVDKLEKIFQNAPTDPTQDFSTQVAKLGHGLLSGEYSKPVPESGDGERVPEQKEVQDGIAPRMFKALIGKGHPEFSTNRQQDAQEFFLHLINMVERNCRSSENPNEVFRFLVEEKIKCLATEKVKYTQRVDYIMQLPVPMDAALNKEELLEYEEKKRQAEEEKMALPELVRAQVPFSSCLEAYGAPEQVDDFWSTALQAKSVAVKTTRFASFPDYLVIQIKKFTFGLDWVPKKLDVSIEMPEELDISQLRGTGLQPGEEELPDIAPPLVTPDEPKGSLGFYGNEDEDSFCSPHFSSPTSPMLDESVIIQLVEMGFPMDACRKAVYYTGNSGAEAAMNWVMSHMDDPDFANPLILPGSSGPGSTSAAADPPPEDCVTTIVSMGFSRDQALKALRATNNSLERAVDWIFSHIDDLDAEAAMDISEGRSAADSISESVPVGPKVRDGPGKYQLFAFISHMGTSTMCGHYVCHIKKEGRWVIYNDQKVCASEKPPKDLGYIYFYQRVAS

[2] = biological target: DUBs and other proteins in HEK293 cells (Homo sapiens, UniProt P54578); conditions: USP14, listed as ABP 2
[3] = biological target: DUBs and other proteins in HEK293 cells (Homo sapiens, UniProt Q93008); conditions: USP9X, listed as ABP 2
[4] = biological target: DUBs and other proteins in HEK293 cells (Homo sapiens, UniProt Q93009); conditions: USP7, listed as ABP 2
[5] = biological target: T2, DUBs and other proteins in HEK293 cells (Homo sapiens, UniProt Q9Y4E8); conditions: USP15, listed as ABP 2
T2 sequence (Q9Y4E8 1-981): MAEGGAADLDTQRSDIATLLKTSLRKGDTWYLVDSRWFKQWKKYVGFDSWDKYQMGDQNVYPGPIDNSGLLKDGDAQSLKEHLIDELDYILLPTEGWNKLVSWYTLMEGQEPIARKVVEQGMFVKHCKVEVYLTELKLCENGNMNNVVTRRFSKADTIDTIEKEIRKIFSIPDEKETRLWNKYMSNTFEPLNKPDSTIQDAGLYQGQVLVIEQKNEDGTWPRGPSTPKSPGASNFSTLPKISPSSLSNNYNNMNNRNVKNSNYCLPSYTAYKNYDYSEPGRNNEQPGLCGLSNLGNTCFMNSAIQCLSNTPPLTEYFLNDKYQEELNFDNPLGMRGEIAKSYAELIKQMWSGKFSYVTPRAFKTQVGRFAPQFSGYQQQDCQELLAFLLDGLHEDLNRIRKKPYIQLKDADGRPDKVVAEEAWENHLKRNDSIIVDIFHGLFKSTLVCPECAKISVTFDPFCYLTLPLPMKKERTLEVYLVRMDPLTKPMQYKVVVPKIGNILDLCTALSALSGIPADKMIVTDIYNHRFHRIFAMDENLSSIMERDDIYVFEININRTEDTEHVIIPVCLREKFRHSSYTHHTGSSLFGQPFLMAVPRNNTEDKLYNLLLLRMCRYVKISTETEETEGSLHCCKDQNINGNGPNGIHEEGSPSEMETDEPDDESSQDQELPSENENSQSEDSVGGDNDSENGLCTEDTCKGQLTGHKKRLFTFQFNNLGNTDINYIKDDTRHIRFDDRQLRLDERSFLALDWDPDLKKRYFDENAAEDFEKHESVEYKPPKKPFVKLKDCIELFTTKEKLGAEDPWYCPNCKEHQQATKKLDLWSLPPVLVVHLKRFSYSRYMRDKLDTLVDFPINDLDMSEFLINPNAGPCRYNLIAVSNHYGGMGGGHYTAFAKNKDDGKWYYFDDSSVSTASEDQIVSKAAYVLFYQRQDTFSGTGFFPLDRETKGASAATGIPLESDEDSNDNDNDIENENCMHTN

[6] = 200 nM, 180 min, replicates A,C

DUBs and other proteins in HEK293 cells (Homo sapiens, UniProt P54578), sequence (P54578 whole entry): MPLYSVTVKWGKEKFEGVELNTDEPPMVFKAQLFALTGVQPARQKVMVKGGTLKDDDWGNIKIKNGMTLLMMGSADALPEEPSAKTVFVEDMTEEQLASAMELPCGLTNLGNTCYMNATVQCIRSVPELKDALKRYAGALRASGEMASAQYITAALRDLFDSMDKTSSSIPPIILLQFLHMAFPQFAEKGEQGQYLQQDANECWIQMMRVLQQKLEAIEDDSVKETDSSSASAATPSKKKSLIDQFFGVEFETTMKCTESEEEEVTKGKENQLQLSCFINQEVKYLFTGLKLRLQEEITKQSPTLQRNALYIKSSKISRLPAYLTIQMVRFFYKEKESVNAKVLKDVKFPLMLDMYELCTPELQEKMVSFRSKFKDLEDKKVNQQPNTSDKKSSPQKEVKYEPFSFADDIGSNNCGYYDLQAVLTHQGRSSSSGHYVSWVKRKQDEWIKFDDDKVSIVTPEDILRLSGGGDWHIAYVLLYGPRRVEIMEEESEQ
DUBs and other proteins in HEK293 cells (Homo sapiens, UniProt Q93008), sequence (Q93008 whole entry): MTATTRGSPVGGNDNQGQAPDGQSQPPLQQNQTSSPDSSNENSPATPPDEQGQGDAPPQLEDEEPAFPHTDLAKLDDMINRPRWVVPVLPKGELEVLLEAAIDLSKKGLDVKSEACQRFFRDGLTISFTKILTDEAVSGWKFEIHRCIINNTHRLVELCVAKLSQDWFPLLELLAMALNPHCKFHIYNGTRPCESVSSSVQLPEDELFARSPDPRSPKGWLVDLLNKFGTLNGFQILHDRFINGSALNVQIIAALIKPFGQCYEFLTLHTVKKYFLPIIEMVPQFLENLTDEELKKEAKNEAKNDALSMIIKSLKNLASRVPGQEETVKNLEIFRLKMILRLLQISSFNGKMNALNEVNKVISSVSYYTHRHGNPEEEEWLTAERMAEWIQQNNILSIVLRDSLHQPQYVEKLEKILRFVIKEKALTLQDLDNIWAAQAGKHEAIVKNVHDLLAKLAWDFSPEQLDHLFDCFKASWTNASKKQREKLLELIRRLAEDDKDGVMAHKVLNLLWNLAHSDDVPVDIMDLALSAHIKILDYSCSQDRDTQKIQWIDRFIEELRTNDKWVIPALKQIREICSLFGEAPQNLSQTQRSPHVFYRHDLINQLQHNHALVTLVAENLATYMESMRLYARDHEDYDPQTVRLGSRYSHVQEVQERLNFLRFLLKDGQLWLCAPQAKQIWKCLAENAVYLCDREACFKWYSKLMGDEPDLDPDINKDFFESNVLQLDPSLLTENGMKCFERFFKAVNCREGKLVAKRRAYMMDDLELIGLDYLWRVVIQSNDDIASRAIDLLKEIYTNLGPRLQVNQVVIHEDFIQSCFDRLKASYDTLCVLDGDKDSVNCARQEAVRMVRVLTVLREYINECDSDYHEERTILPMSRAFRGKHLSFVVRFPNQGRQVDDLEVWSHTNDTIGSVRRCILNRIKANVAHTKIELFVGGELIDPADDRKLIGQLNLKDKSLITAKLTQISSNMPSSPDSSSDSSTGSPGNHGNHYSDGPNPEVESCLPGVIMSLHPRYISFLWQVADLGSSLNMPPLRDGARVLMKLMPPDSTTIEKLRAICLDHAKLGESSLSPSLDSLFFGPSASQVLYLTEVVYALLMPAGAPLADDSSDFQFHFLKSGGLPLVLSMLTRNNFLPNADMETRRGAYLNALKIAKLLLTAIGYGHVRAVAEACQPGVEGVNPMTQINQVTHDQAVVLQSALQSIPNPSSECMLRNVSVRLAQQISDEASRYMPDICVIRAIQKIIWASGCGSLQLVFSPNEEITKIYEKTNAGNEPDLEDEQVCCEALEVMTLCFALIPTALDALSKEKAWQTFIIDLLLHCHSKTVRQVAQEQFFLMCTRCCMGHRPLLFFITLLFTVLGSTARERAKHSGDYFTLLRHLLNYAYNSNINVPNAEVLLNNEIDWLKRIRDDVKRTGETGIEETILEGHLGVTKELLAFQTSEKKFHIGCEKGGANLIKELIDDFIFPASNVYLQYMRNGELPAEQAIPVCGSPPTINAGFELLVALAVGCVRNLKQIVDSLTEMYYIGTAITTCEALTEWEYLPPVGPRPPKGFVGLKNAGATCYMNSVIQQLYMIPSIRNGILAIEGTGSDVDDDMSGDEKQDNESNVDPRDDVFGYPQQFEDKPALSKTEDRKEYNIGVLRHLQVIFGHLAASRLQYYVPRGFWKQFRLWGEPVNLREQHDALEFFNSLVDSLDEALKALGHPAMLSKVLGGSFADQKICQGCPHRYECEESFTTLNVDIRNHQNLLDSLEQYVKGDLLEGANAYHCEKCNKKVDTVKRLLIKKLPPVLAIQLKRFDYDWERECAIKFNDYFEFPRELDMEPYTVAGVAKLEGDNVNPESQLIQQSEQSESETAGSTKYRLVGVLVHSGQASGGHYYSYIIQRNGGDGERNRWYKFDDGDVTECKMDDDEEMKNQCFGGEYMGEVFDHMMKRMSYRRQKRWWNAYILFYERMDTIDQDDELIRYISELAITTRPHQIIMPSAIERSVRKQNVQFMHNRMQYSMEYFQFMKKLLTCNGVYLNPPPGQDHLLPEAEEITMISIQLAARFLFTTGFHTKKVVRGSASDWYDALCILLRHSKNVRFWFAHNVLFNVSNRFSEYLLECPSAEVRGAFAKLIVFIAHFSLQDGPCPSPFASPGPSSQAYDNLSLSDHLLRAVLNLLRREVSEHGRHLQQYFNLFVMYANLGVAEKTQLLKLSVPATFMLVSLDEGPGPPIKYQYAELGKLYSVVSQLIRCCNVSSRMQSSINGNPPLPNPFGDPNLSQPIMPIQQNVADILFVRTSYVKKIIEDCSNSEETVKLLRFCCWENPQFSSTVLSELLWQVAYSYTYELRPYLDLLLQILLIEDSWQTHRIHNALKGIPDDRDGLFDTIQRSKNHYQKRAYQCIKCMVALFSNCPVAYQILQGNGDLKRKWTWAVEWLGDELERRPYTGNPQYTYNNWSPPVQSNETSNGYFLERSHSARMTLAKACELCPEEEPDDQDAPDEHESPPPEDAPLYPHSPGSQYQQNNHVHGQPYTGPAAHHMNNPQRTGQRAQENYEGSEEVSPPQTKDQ
DUBs and other proteins in HEK293 cells (Homo sapiens, UniProt Q93009), sequence (Q93009 whole entry): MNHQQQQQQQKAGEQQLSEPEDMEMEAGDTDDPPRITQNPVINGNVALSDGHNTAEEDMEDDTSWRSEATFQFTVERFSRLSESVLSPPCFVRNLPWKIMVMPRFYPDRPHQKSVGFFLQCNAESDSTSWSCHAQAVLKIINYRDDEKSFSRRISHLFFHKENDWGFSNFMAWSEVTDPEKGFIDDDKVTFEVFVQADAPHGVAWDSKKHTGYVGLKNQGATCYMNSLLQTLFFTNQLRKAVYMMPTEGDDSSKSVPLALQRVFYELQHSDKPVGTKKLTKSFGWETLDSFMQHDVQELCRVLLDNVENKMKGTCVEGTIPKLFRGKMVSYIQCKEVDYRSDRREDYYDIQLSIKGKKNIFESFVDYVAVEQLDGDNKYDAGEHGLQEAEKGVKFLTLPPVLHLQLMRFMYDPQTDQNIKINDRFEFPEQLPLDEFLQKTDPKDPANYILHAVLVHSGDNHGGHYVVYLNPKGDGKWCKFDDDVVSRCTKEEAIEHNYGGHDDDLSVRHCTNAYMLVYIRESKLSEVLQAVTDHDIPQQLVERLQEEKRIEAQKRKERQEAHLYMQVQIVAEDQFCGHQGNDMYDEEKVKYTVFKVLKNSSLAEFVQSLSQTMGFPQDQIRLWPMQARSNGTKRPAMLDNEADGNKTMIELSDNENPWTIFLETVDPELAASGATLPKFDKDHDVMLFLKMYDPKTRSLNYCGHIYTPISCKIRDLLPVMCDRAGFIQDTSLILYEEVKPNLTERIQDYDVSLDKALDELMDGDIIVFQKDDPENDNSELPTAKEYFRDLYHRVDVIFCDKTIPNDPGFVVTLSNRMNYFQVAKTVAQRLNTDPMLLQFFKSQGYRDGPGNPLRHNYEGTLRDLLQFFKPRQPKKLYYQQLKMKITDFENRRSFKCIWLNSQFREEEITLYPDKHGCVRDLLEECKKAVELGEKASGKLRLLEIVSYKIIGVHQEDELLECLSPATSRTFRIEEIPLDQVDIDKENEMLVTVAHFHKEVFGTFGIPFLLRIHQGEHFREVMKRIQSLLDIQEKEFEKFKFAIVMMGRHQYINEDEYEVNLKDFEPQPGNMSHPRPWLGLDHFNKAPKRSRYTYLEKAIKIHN

In the case of `C#Cc1cnc2[nH]cc(-c3cccc4c3CCN4C(=O)[C@@H]3CCCN3C#N)c2c1` [Compound 2], the “Log2 reporter intensity values (Log2FC, DMSO substract)” value (“Log2 reporter intensity values” for short) ([1]; 2 nM, 60 min, replicates A-C) is reported as -0.1407 and 0.0289 and 0.1099, the “Log2 reporter intensity values” value ([1]; 20 nM, 10 min, replicates B,C) is reported as 0.1281 and the “Log2 reporter intensity values” value ([1]; 20 nM, 60 min, replicates A-C) is reported as 0.06053 and 0.195 and 0.2148. For the same molecule, the “Log2 reporter intensity values” value ([1]; 20 nM, 180 min, replicates A-C) was 0.2725 and 0.06742 and 0.2092, the “Log2 reporter intensity values” value ([1]; 200 nM, 10 min, replicates B,C) was 0.2092 and 0.2483 and the “Log2 reporter intensity values” value ([1]; 200 nM, 60 min, replicates A-C) was 0.08791 and 0.2394. The “Log2 reporter intensity values” value [1, 6] was 0.2625 and 0.2347, the “Log2 reporter intensity values” value ([2]; 2 nM, 60 min, replicates A-C) was 0.01071 and 0.05631 and -0.04364 and the “Log2 reporter intensity values” value ([2]; 20 nM, 10 min, replicates B,C) was 0.009394 and 0.07693. For the same molecule, the “Log2 reporter intensity values” value ([2]; 20 nM, 60 min, replicates A-C) was 0.05332 and 0.1025, the “Log2 reporter intensity values” value ([2]; 20 nM, 180 min, replicates A-C) was 0.1385 and 0.1351 and 0.05551 and the “Log2 reporter intensity values” value ([2]; 200 nM, 10 min, replicates B,C) was 0.1048. For the same molecule, the “Log2 reporter intensity values” value ([2]; 200 nM, 60 min, replicates A-C) was 0.05455 and 0.04834 and 0.1109, the “Log2 reporter intensity values” value [2, 6] was -0.08272 and -0.01544 and the “Log2 reporter intensity values” value ([3]; 2 nM, 60 min, replicates A-C) was 0.06074 and 0.05768 and -0.1222. For the same molecule, the “Log2 reporter intensity values” value ([3]; 20 nM, 10 min, replicates B,C) was 0.0266 and 0.08583, the “Log2 reporter intensity values” value ([3]; 20 nM, 60 min, replicates A-C) was -0.07107 and -0.1083 and 0.02034 and the “Log2 reporter intensity values” value ([3]; 20 nM, 180 min, replicates A-C) was -0.3167 and 0.0151 and 0.03374. For the same molecule, the “Log2 reporter intensity values” value ([3]; 200 nM, 10 min, replicates B,C) was 0.03305 and -0.1026, the “Log2 reporter intensity values” value ([3]; 200 nM, 60 min, replicates A-C) was 0.09885 and 0.2045 and -0.1344 and the “Log2 reporter intensity values” value [3, 6] was 0.109 and 0.1534. The “Log2 reporter intensity values” value ([4]; 2 nM, 60 min, replicates A-C) was 0.06357 and 0.017 and -0.3747, the “Log2 reporter intensity values” value ([4]; 20 nM, 10 min, replicates B,C) was -0.07969 and -0.2354 and the “Log2 reporter intensity values” value ([4]; 20 nM, 60 min, replicates A-C) was 0.02327 and -0.09058 and -0.2812. The “Log2 reporter intensity values” value ([4]; 20 nM, 180 min, replicates A-C) was -0.1814 and -0.1595 and -0.1999, the “Log2 reporter intensity values” value ([4]; 200 nM, 10 min, replicates B,C) was 0.1137 and the “Log2 reporter intensity values” value ([4]; 200 nM, 60 min, replicates A-C) was -0.04347 and 0.1524 and 0.1409. For the same molecule, the “Log2 reporter intensity values” value [4, 6] was -0.01106 and 0.3029, the “Log2 reporter intensity values” value ([5]; 2 nM, 60 min, replicates A-C) was 0.1138 and 0.004511 and -0.04471 and the “Log2 reporter intensity values” value ([5]; 20 nM, 10 min, replicates B,C) was 0.2038 and 0.1797. For the same molecule, the “Log2 reporter intensity values” value ([5]; 20 nM, 60 min, replicates A-C) was 0.04003 and 0.2301 and -0.05461, the “Log2 reporter intensity values” value ([5]; 20 nM, 180 min, replicates A-C) was -0.06212 and 0.248 and 0.23 and the “Log2 reporter intensity values” value ([5]; 200 nM, 10 min, replicates B,C) was -0.05955 and -0.05362. For the same molecule, the “Log2 reporter intensity values” value ([5]; 200 nM, 60 min, replicates A-C) was 0.07483 and 0.06943 and 0.1943 and the “Log2 reporter intensity values” value [5, 6] was 0.004999 and 0.2331.
